{"source": "patent US20220362249A1", "about": "“METHODS FOR TREATING […]” (PTC Therapeutics MP, Inc., priority 2019, published 2022)", "key": {"[1]": {"tested_on": "phenylalanine plasma concentrations", "details": "cited from earlier work"}, "[2]": {"tested_on": "blood Phe", "details": "standard deviation of 220 μmol/L; cited from earlier work"}, "[3]": {"test": "Adverse events in patients with PKU on PTC923 or sapropterin dihydrochloride", "assay_type": "in vivo, human", "details": "20 mg/kg", "description": "PTC923 safety was monitored and adverse events (AEs) were coded using the Medical Dictionary for Regulatory Activities (MedDRA®) version 21.0. Treatment-emergent adverse events (TEAEs) were defined as AE that began on or after first dose of study drug. A TEAE was associated with the study treatment currently being received, or the last study treatment before its onset. A treatment-related TEAE was, in the judgment of the investigator possibly, probably or definitely related to treatment. A serious AE (SAE) was defined as resulting in death, life-threatening AE, inpatient hospitalization or prolongation of existing hospitalization, a persistent or significant disability/incapacity or a substantial disruption of the ability to conduct normal life functions, or a congenital anomaly/birth defect."}, "[4]": {"tested_on": "blood Phe", "test": "Reduction of blood Phe in patients with PKU, randomized crossover of PTC923 vs sapropterin dihydrochloride", "assay_type": "in vivo, human", "details": "for Mean (SD) blood Phe, At baseline: 20 mg/kg period, Day 1 pre-dose; for Least squares mean (SE) change from baseline in blood Phe / Mean (SD) blood Phe, Change / Mean (SD) blood Phe, On treatment: 20 mg/kg/day oral, 7 days; for Mean (SD) blood Phe, On treatment: mean of days 3, 5 and 7", "experimental": "Following screening for eligibility, a 7-day run-in period commenced. Patients then received 7 days of once-daily oral treatment with either PTC923 20 mg/kg/day (“low dose”), or PTC923 60 mg/kg/day or sapropterin dihydrochloride, in a random order. PTC923 (formerly CNSA-001) is oral sepiapterin. Each patient was randomized to one of six treatment sequences (FIG. 2). The randomization in six different treatment sequences was intended to minimize carry over effect, treatment period effect, patient fatigue, and natural fluctuations in blood Phe levels. A 7-day washout period separated each active treatment period. Patients were asked to maintain their usual pre-study diet, including consumption of amino acid mixtures if prescribed, and were monitored throughout the study by a metabolic dietician.\nBlood samples for measurement of Phe were taken on 7, 5, 3, and 1 days before randomization. During treatment periods, blood was taken pre-dose for day 1 and post-dose for days 3, 5 and 7. During the washout periods, blood was taken for measurement of Phe on days 1, 3, 5, and 7. All samples were taken under fasting conditions or no earlier than 3 hours following a meal and at the same time of day. Blood Phe was measured using a validated LC-MS-MS technique of dried blood sampling via Volumetric Absorptive Microsampling (VAMS®) using Mitra® 4-sampler clamshells, at a central bioanalytical laboratory (Agilex Biolabs Pty Ltd).\nThe main objective of the study was to assess the efficacy of PTC923 measured as the mean blood Phe change from baseline. The efficacy population consisted of all patients who were randomized and had blood Phe measurements before treatment and at days 3, 5 and 7 of treatment from at least one treatment period. The safety population consisted of all patients who were randomized and who received any dose of study treatment. The sample size calculation was based on an all-comers, placebo-controlled regulatory study of sapropterin with an observed mean decrease in blood Phe of 99 μmol/L and standard deviation of 220 μmol/L, and assumed a true mean decrease in blood Phe of 300 μmol/L with 80% power utilizing a 2-sided α of 0.05.\nResponse to PTC923 was evaluated by measuring the mean change from baseline in blood Phe (calculated as the mean of measurements at days 3, 5 and 7 of each treatment period). Day 1 pre-dose blood Phe concentrations for each treatment period served as the individual patient specific baseline for that period.\nThe change from baseline in blood Phe of each treatment period was modelled using a linear mixed model for repeated measures (MMRM). The efficacy model included fixed effects for baseline for each treatment period, treatment group, sequence, period, and a random subject effect within each sequence, with a first order autoregressive AR (1) covariance structure. No unplanned covariates were included.\nPairwise comparisons in changes from baseline in Phe were performed between each PTC923 treatment and sapropterin treatment by calculating the least squares means with Dunnet's method of adjustment for multiple comparisons. The estimated change in blood Phe levels, their standard errors (SE) and associated p-values were calculated for each pairwise comparison. Dunnet's method of adjustment was used to account for the multiple comparisons of the test groups against the control group. This adjustment ensured that the overall Type I error rate under the null hypothesis was maintained despite multiple test groups being compared to the single control group.\nThe overall mean changes in blood Phe for each treatment were calculated and the standard deviations (SD) were determined.\nA prespecified sensitivity analysis excluded treatment periods where baseline Phe was <300 μmol/L and a responder analysis looked at patients with baselines ≥300 μmol/L who responded to sapropterin and/or to PTC923 treatment by ≥20% reduction."}, "[5]": {"details": "Subjects with classical PKU (N = 11)"}}, "note": "Where a name gives a salt, the structure may show the parent alone.", "data": [{"molecule": "C[C@H](O)[C@H](O)[C@H]1CNc2nc(N)[nH]c(=O)c2N1", "note": "[sapropterin dihydrochloride, reference compound]", "values": [{"measurement": "Classical PKU subjects that respond to treatment (historically)", "setting": "[1]", "value": "about 10%"}, {"measurement": "Observed mean decrease in blood Phe", "setting": "[2]", "value": 99, "unit": "µmol/L"}, {"measurement": "Patients reporting any adverse event", "setting": "[3]", "value": 21, "unit": "%"}, {"measurement": "Patients reporting severe AE", "setting": "[3]", "value": 0, "unit": "%"}, {"measurement": "Patients reporting treatment-related AE", "setting": "[3]", "value": 0, "unit": "%"}, {"measurement": "Headache (all-cause AE)", "setting": "[3]; transient", "value": 4, "unit": "%"}, {"measurement": "Proportion of patients achieving blood Phe <360 μmol/L", "setting": "[4]; 20 mg/kg, n of 24", "value": 42, "unit": "%"}, {"measurement": "Mean (SD) blood Phe, At baseline", "setting": "[4]; All subjects (N = 24)", "value": "710.4 (370.0) μmol/L"}, {"measurement": "Least squares mean (SE) change from baseline in blood Phe", "setting": "[4]; All subjects (N = 24)", "value": "−91.5 (41.7) μmol/L"}, {"measurement": "Mean (SD) blood Phe, Change", "setting": "[4]; All subjects (N = 24)", "value": "−90.8 (226.9) μmol/L"}, {"measurement": "Mean (SD) blood Phe, On treatment", "setting": "[4]; All subjects (N = 24)", "value": "619.5 (475.3) μmol/L"}, {"measurement": "Least squares mean change from baseline in blood Phe to first Phe measurement (Day 3)", "setting": "[4]; Day 3, 20 mg/kg", "value": -72.3, "unit": "µmol/L"}, {"measurement": "Mean (SD) blood Phe, At baseline", "setting": "[4]; [5]", "value": "903.5 (422.5) μmol/L"}, {"measurement": "Mean (SD) blood Phe, Change", "setting": "[4]; [5]", "value": "10.7 (221.6) μmol/L"}, {"measurement": "Least squares mean (SE) change from baseline in blood Phe", "setting": "[4]; Subjects with classical PKU (N = 11), dihydrochloride, 20 mg/kg/day", "value": -2.8, "unit": "µmol/L"}, {"measurement": "Least squares mean (SE) change from baseline in blood Phe", "setting": "[4]; Subjects with classical PKU (N = 11), listed as Sapropterin dihydrochloride, dihydrochloride, 20 mg/kg/day", "value": "−2.8 (62.0) μmol/L"}, {"measurement": "Mean (SD) blood Phe, On treatment", "setting": "[4]; [5]", "value": "914.2 (538.7) μmol/L"}, {"measurement": "Least squares mean change from baseline in blood Phe", "setting": "[4]; group of 12 responders (Phe reduction ≥20%, baseline ≥300 μmol/L), 20 mg/kg", "value": -139.70, "unit": "µmol/L"}, {"measurement": "Non-classical subjects normalized (blood phenylalanine less than 120 micromole per liter)", "setting": "[4]; non-classical subjects", "value": 15.4, "unit": "%"}]}]}
